Measured values published in patent US20160222014A1, “COMPOUNDS FOR REGULATING FAK AND/OR SRC PATHWAYS” (ASANA BIOSCIENCES, LLC, priority 2013, published 2016).

Key:
Recombinant Src enzyme = molecular target: T1, Recombinant Src enzyme (Homo sapiens, UniProt P12931); test: Src HTRF assay; format: biochemical
T1 construct: purchased Millipore 14-326; host or cells: Sf21 insect cells
Method in brief: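 Run as for the FAK HTRF assay (same buffer, supplements, compound preparation and procedure), with dasatinib included. Reaction contained 0.5 μM biotin-tagged Tyk2 synthetic peptide, 5 nM Src made in Sf21 cells, and a pH7.4-buffer-prepared component at 10 μM final.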

recombinant human FAK1 = molecular target: T2, recombinant human FAK1 (Homo sapiens, UniProt Q05397); test: FAK1 HTRF assay; format: biochemical
T2 construct: fused on or other part: N-terminal 6xHis tag
T2 sequence (Q05397 422-680 limits assumed): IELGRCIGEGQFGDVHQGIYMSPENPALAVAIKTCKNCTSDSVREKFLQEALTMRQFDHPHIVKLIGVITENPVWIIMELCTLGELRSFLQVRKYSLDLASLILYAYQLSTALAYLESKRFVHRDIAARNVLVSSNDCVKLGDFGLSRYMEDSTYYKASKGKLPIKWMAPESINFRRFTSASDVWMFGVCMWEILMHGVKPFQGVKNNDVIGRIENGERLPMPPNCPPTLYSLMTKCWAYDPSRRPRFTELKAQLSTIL
Method in brief: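 IC50 values derive from HTRF % inhibition (ratio 665/620 nm, Eu–anti-phosphotyrosine 0.1 nM, SA-APC 12 nM). The kinase step ran 45 min at room temperature, pairing 10 nM His-FAK1(692–end) from baculovirus with 0.5 μM gastrin Tyr87 biotin-peptide and a reagent at 10 μM final, pH 7.4. Compound dilutions began at 10 μM.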

T1 sequence (P12931 whole entry): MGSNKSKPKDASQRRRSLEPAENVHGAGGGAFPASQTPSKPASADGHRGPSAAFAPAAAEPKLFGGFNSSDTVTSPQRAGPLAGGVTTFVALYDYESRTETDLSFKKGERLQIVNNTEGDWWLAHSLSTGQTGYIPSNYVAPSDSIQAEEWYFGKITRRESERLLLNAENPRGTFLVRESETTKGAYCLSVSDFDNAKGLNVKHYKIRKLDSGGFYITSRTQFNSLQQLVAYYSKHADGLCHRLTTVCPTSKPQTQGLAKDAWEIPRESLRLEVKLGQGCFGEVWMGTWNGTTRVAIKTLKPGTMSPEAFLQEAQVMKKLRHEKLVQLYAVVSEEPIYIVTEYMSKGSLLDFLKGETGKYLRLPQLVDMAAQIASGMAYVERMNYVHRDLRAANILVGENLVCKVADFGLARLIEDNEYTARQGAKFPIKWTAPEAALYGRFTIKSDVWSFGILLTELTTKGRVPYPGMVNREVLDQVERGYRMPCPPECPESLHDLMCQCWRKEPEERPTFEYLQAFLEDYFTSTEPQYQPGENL

Row | Structure (SMILES) | IC50 (Recombinant Src enzyme) [nM] | IC50 (recombinant human FAK1) [nM]
1 | O=C1CCc2cc(Nc3ncc4cnn(Cc5ccccc5OC(F)F)c4n3)ccc2N1 [Example 21] | < 20 | 
2 | CN(c1ncccc1Cn1ncc2cnc(Nc3ccc4[nH]c(=O)[nH]c4c3)cc21)S(C)(=O)=O [Example 142] | > 1000 | < 20
3 | O=C1CCc2cc(Nc3ncc4ccn(S(=O)(=O)c5cccc6cccnc56)c4n3)ccc2N1 [Example 169] | < 20 | < 20
4 | CN(c1ncccc1Cn1ncc2cnc(Nc3ccc4c(c3)CCC(=O)N4)nc21)S(C)(=O)=O [Example 202] | < 20 | 
5 | O=C1CCc2cc(Nc3ncc4ccn(Cc5cccnc5N5CCCS5(=O)=O)c4n3)ccc2N1 [Example 216] | < 20 | < 20
6 | O=S(=O)(c1cccc2nsnc12)n1ccc2cnc(Nc3ccc(N4CCNCC4)cc3)nc21 [Example 253] |  | < 20
7 | Cn1cc(Nc2ncc3ccn(S(=O)(=O)c4cccc5cccnc45)c3n2)cn1 [Example 318] |  | < 20

The remaining lines, values ahead:

Row | IC50 (Recombinant Src enzyme) [nM] | IC50 (recombinant human FAK1) [nM] | Structure (SMILES)
8 | > 1000 | < 20 | COc1cc(N2CCNCC2)ccc1Nc1cc2c(ccn2S(=O)(=O)c2cccc3cccnc23)cn1 [Example 330, N-(2-Methoxy-4-(piperazin-1-yl)phenyl)-1-(quinolin-8-ylsulfonyl)-1H-pyrrolo[3,2-c]pyridin-6-amine]
9 | < 20 | < 20 | Cc1cc(Nc2ncc3cnn(S(=O)(=O)c4cccc5cccnc45)c3n2)ccc1N1CCNCC1 [Example 332]
10 |  | < 20 | CN(c1ncccc1Cn1ccc2cnc(Nc3ccc(N4CCCC4CO)cc3)nc21)S(C)(=O)=O (stereo not drawn) [Example 536]
